Reference: US20120059029A1 (Elan Pharmaceuticals, Inc., priority 2010, published 2012)

Columns and labels:
Type in all cases: cell-based
[1] = target: T1, activated α4β1 on Jurkat cells (Homo sapiens, UniProt P05556+P13612); assay: α4β1-FN capture assay in human serum (Jurkat cells, FACS); conditions: 50% human serum
T1 construct: Jurkat™ lymphoma T cells express high levels of α4β1 integrin; endogenous in cells; host or cells: Jurkat cells
Procedure: The α4β1 receptors on Jurkat™ cell surfaces can capture, in solution, the endogenous FN present in serum.
An equal volume of assay buffer containing 50% human serum, the antibody 15/7 (2×, 20 μg/ml) and MnCl2 (2×, 3 mM) was then added to each well. These reagents served as α4 integrin activating agents, allowing the receptor to capture FN from the serum. The plate was then incubated for another 30 minutes at RT.

α4β1 [2] = target: T2, α4β1 (Homo sapiens, UniProt P05556+P13612); assay: α4β1-dependent Jurkat adhesion to rs-hu-VCAM-1; conditions: read-out: EC50, adhesion of Jurkat cells to human VCAM-1
T2 construct: Jurkat™ lymphoma T cells express high levels of α4β1 integrin; endogenous in cells; host or cells: Jurkat cells
Text: Jurkat™ lymphoma T cells express high levels of α4β1 integrin and strongly adhere to VCAM-1 in an α4 integrin-dependent fashion.

α4β1 [3] = target: T2, α4β1; assay: α4β1-dependent Jurkat cell adhesion to human fibronectin; conditions: TS2/16-activated α4β1, anti-α5 antibody present; read-out: EC50, Jurkat adhesion to FN
Procedure: Jurkat™ cells adhere to fibronectin (FN) in an […] fashion.
5 μg/mL of an inhibitory antibody against α5 integrin (BD Pharmingen, Franklin Lakes, N.J.) is added to the buffer to prevent α5-dependent adhesion to FN.

T2 sequence (P13612 34-1032): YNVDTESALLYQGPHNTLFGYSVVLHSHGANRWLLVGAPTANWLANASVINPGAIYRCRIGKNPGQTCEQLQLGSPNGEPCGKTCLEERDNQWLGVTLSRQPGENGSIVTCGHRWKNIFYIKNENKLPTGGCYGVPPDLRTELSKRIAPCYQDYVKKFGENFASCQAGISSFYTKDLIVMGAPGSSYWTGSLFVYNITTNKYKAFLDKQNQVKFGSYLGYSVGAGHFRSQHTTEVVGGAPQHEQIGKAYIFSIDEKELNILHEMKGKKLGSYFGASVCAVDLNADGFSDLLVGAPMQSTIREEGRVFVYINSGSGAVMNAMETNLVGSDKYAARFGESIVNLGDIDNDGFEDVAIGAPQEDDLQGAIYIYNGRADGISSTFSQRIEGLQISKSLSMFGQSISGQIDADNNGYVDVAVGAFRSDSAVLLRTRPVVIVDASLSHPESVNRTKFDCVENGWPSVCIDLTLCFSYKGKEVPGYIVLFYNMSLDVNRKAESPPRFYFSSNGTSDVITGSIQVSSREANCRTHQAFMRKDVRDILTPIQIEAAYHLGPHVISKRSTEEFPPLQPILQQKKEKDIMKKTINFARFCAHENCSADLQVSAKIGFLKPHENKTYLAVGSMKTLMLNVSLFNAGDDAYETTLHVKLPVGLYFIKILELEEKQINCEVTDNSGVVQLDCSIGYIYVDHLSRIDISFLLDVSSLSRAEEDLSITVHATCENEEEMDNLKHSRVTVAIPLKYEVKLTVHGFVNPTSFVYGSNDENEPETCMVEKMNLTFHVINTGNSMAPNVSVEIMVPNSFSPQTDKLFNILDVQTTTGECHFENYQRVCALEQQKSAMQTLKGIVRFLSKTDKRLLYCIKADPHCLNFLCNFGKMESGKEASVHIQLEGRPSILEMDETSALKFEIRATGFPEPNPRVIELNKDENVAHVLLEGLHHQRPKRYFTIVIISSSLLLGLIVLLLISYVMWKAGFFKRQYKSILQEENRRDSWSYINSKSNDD
T2 sequence (P05556 21-798): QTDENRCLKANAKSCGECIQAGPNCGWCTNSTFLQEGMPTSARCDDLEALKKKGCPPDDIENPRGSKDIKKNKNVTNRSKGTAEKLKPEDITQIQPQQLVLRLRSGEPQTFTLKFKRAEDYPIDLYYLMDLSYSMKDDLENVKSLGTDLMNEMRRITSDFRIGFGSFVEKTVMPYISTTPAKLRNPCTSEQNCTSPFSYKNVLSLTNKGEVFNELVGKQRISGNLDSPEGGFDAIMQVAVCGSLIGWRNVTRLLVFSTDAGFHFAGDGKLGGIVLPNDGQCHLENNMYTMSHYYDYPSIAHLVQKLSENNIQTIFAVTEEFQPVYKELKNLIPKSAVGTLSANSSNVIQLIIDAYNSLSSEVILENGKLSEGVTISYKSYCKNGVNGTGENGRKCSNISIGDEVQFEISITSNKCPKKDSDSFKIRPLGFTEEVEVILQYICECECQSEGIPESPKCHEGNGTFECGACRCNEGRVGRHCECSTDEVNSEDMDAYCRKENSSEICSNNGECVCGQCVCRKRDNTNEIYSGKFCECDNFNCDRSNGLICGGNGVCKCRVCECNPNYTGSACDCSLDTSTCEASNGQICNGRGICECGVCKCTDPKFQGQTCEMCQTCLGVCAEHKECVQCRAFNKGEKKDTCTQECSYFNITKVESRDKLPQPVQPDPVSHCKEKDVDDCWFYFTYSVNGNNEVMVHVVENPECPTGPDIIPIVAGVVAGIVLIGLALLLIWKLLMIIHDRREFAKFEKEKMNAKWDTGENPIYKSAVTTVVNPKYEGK
T1 sequence (P13612 34-1032): as the sequence (P13612 34-1032) above
T1 sequence (P05556 21-798): as the sequence (P05556 21-798) above

SMILES: CC1(C)SCN(S(=O)(=O)c2cccnc2)[C@@H]1C(=O)N[C@@H](Cc1ccc(-n2c(=O)[nH]c3cccnc32)cc1)C(=O)O
- fold less potent than Formula (I), FN capture [1]: 2.6 fold
- EC50 (α4β1 [2]): 11.6 nM
- EC50 (α4β1 [3]): 0.1 nM
